From the supplement of paper PMC10307832

Assays:
Test in all cases: relative viability (nuclei count vs DMSO), 5 days (fraction); higher = more cells survive
VE-821 + Alpelisib = compound: CS(=O)(=O)c1ccc(-c2cnc(N)c(C(=O)Nc3ccccc3)n2)cc1 [VE-821] + Cc1nc(NC(=O)N2CCC[C@H]2C(N)=O)sc1-c1ccnc(C(C)(C)C(F)(F)F)c1 [Alpelisib] (partner 2 µM)
Summary of the method: (§1)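 Lung cancer cell lines, seeded in 1536-well plates, were treated the following day by pin tool with a single drug or with five library-drug doses (not always all listed) in √10 steps on top of a fixed anchor-drug dose. Cells were fixed and nuclei stained in one step after 5 days, and nuclei were counted. Relative viability is the nuclei count for treated wells divided by that for vehicle wells, reported as medians of duplicate plates.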

VE-821 + Olaparib = compound: CS(=O)(=O)c1ccc(-c2cnc(N)c(C(=O)Nc3ccccc3)n2)cc1 [VE-821] + O=C(c1cc(Cc2n[nH]c(=O)c3ccccc23)ccc1F)N1CCN(C(=O)C2CC2)CC1 [Olaparib] (partner 8 µM)
Summary of the method: as §1

Vismodegib + Lapatinib = compound: CS(=O)(=O)c1ccc(C(=O)Nc2ccc(Cl)c(-c3ccccn3)c2)c(Cl)c1 [Vismodegib] + CS(=O)(=O)CCNCc1ccc(-c2ccc3ncnc(Nc4ccc(OCc5cccc(F)c5)c(Cl)c4)c3c2)o1 [Lapatinib] (partner 2 µM)
Summary of the method: as §1

Vismodegib + Trametinib = compound: CS(=O)(=O)c1ccc(C(=O)Nc2ccc(Cl)c(-c3ccccn3)c2)c(Cl)c1 [Vismodegib] + CC(=O)Nc1cccc(-n2c(=O)n(C3CC3)c(=O)c3c(Nc4ccc(I)cc4F)n(C)c(=O)c(C)c32)c1 [Trametinib] (partner 0.02 µM)
Summary of the method: as §1

| Cell Line | relative viability (VE-821 + Alpelisib; first compound 0.08 µM) | relative viability (VE-821 + Alpelisib; first compound 0.253 µM) | relative viability (VE-821 + Alpelisib; first compound 0.8 µM) | relative viability (VE-821 + Alpelisib; first compound 2.53 µM) | relative viability (VE-821 + Alpelisib; first compound 8 µM) | relative viability (VE-821 + Olaparib; first compound 0.08 µM) | relative viability (VE-821 + Olaparib; first compound 0.253 µM) | relative viability (VE-821 + Olaparib; first compound 0.8 µM) | relative viability (VE-821 + Olaparib; first compound 2.53 µM) | relative viability (VE-821 + Olaparib; first compound 8 µM) | relative viability (Vismodegib + Lapatinib; first compound 0.08 µM) | relative viability (Vismodegib + Lapatinib; first compound 0.253 µM) | relative viability (Vismodegib + Lapatinib; first compound 0.8 µM) | relative viability (Vismodegib + Lapatinib; first compound 2.53 µM) | relative viability (Vismodegib + Lapatinib; first compound 8 µM) | relative viability (Vismodegib + Trametinib; first compound 0.08 µM) | relative viability (Vismodegib + Trametinib; first compound 0.253 µM) | relative viability (Vismodegib + Trametinib; first compound 0.8 µM) | relative viability (Vismodegib + Trametinib; first compound 2.53 µM) | relative viability (Vismodegib + Trametinib; first compound 8 µM) |
| --- | --- | --- | --- | --- | --- | --- | --- | --- | --- | --- | --- | --- | --- | --- | --- | --- | --- | --- | --- | --- |
| 201T | 1.11 | 1.03 | 0.878 | 1.09 | 0.85 | 0.859 | 0.819 | 0.826 | 0.748 | 0.623 | 1.05 | 0.998 | 0.946 | 1.04 | 1.02 | 0.724 | 0.721 | 0.737 | 0.698 | 0.657 |
| A549 | 0.995 | 0.746 | 0.624 | 0.872 | 0.548 | 0.431 | 0.291 | 0.195 | 0.262 | 0.207 | 1.02 | 0.972 | 0.971 | 0.979 | 0.908 | – | – | – | – | – |
| A-427 | 1.01 | 1.03 | 1.08 | 1.12 | 0.706 | 0.797 | 0.71 | 0.618 | 0.556 | 0.389 | 1.09 | 1.04 | 1.01 | 0.977 | 1.13 | 0.812 | 0.82 | 0.654 | 0.777 | 0.913 |
| ABC-1 | 1.21 | 0.854 | 0.91 | 1.03 | 0.904 | 0.776 | 0.873 | 0.755 | 0.869 | 0.757 | – | 1.17 | 1.14 | 1.02 | 1.15 | – | – | – | – | – |
| BEN | 1.09 | 1.01 | 0.877 | 0.968 | 0.976 | 1.17 | 1.01 | 0.902 | 0.768 | 1.08 | 0.77 | 0.718 | 0.778 | 0.844 | 0.733 | 1.14 | 1.03 | 0.873 | 1.14 | 1.1 |
| CAL-12T | 1.22 | 1.08 | 1.37 | 1.32 | 0.837 | 0.869 | 0.73 | 0.816 | 0.691 | 0.549 | – | 0.723 | 0.578 | 0.562 | 0.75 | 0.309 | 0.333 | 0.372 | 0.355 | 0.426 |
| COR-L23 | 0.787 | 0.714 | 0.746 | 0.837 | 0.525 | 0.372 | 0.346 | 0.221 | 0.304 | 0.182 | 0.93 | 0.802 | 0.901 | 0.986 | 1.02 | 0.525 | 0.532 | 0.658 | 0.58 | 0.67 |
| COR-L 105 | 1 | 1 | 0.674 | 0.891 | 0.58 | 0.708 | 0.638 | 0.434 | 0.561 | 0.484 | 0.36 | 0.38 | 0.392 | 0.363 | 0.337 | 0.451 | 0.517 | 0.435 | 0.385 | 0.475 |
| Calu-6 | 0.988 | 0.896 | 0.939 | 0.972 | 0.66 | 0.626 | 0.597 | 0.566 | 0.386 | 0.226 | 1.13 | 1.08 | 1.06 | 1.09 | 1.03 | – | – | – | – | – |
| ChaGo-K-1 | – | – | – | – | – | 0.449 | 0.396 | 0.36 | 0.345 | 0.283 | – | – | – | – | – | 0.849 | 0.904 | 0.919 | 0.781 | 0.796 |
| EBC-1 | 0.888 | 0.75 | 0.742 | 0.779 | 0.683 | 0.75 | 0.774 | 0.74 | 0.562 | 0.416 | 0.215 | 0.189 | 0.205 | 0.195 | 0.215 | – | – | – | – | – |
| EKVX | 0.977 | 0.842 | 0.535 | 0.8 | 0.61 | 0.863 | 0.837 | 0.813 | 0.783 | 0.736 | 0.21 | 0.223 | 0.164 | 0.243 | 0.197 | – | 0.392 | 0.273 | 0.273 | 0.315 |
| EMC-BAC-2 | 0.877 | 0.782 | 0.721 | 0.75 | 0.757 | 0.606 | 0.495 | 0.559 | 0.46 | 0.383 | 0.891 | 0.857 | 0.839 | 0.933 | 0.9 | 0.871 | 0.847 | 0.806 | 0.859 | 0.953 |
| EPLC-272H | 0.998 | 0.858 | 0.694 | 1.23 | 0.807 | 0.949 | 0.829 | 0.504 | 0.608 | 0.255 | 0.789 | 0.893 | 0.947 | 0.939 | 0.91 | 0.276 | 0.269 | 0.246 | 0.282 | 0.297 |
| H3255 | 0.821 | 0.76 | 0.665 | 0.844 | 0.66 | 0.576 | 0.532 | 0.553 | 0.535 | 0.493 | 0.244 | 0.24 | 0.239 | 0.268 | 0.239 | 0.648 | 0.602 | 0.573 | 0.614 | 0.668 |
